Experimental data published in patent US9346812B2, “Substituted pyrrolopyrimidine compounds, compositions thereof, and methods of treatment therewith” (Signal Pharmaceutical LLC, priority 2013, dated 2016).
Like-named read-outs stand apart in the source and are kept apart here.

Tested on: CAL51 cell proliferation
Test: Cell Titer Glo Proliferation Assay (CAL51)
Assay type: cell-based, human
Settings: Homo sapiens, read-out: Act. Level
Procedure: Cell Titer Glo Proliferation Assay. Triple negative breast cancer cell line CAL51 was purchased from DSMZ. […] Allcell lines were maintained in growth media consisting of 90% high glucose Dulbecco's Modified Eagle Medium or RPMI1640 (Invitrogen), 10% fetal bovine serum (Hyclone), and 2 mM L-glutamine (Invitrogen). […] After overnight culture, compound stock (30 mM) was diluted serially in DMSO, further diluted in growth media, and was added to each well as a 10× concentrated solution in a volume of 11 μL, mixed, and allowed to incubate with cells. The compound vehicle (DMSO) was maintained at a final concentration of 0.2% in all wells. After 72 h, 100 μL of Cell Titer Glo solution (Promega) was added to each well of the 96-well plate. The plate was placed on a shaker for 2 minutes. After 10 minutes incubation, the luminescence signal was detected with Envision microplate reader (Perkin Elmer).

[1] = CAL-51, CAL51 cell proliferation, 72 h, Cell Titer Glo luminescence

Structure (SMILES) | IC50 (CAL-51, 72 h) | IC50 [1]
CNC(=O)c1ccc(Nc2nc(OC3CCCC3)c3c(-c4ccc(O)cc4)c[nH]c3n2)cc1 [Example 1, 4-(4-(cyclopentyloxy)-5-(4-hydroxyphenyl)-7H-pyrrolo[2,3-d]pyrimidin-2-ylamino)-N-methylbenzamide] | < 100 nM | 
CNC(=O)c1ccc(Nc2nc(OC3CCCC3)c3c(-c4ccc(O)cc4)c[nH]c3n2)c(C)c1 [Example 9] |  | < 100 nM
CNC(=O)c1ccc(Nc2nc(OC3CCCC3)c3c(-c4ccc(O)cc4)c[nH]c3n2)c(F)c1 [Example 15, 4-(4-(cyclopentyloxy)-5-(4-hydroxyphenyl)-7H-pyrrolo[2,3-d]pyrimidin-2-ylamino)-3-fluoro-N-methylbenzamide] |  | < 100 nM
CNC(=O)c1ccc(Nc2nc(OC3CCCC3)c3c(-c4ccc(CO)cc4)c[nH]c3n2)c(OC)c1 [Example 23, 4-(4-(cyclopentyloxy)-5-(4-(hydroxymethyl)phenyl)-7H-pyrrolo[2,3-d]pyrimidin-2-ylamino)-3-methoxy-N-methylbenzamide] |  | 100 to 400 nM
CNC(=O)c1ccc(Nc2nc(OC3CCCC3)c3c(-c4ccc(O)c(Cl)c4)c[nH]c3n2)c(OC)c1 [Example 24, 4-(5-(3-chloro-4-hydroxyphenyl)-4-(cyclopentyloxy)-7H-pyrrolo[2,3-d]pyrimidin-2-ylamino)-3-methoxy-N-methylbenzamide] |  | < 100 nM
CNC(=O)c1ccc(Nc2nc(OC3CCCC3)c3c(-c4ccc5cn[nH]c5c4)c[nH]c3n2)c(OC)c1 [Example 25, 4-(4-(cyclopentyloxy)-5-(1H-indazol-6-yl)-7H-pyrrolo[2,3-d]pyrimidin-2-ylamino)-3-methoxy-N-methylbenzamide] |  | 100 to 400 nM
CNC(=O)c1ccc(Nc2nc(OC3CCCC3)c3c(-c4cccc(CO)c4)c[nH]c3n2)c(OC)c1 [Example 26, 4-(4-(cyclopentyloxy)-5-(3-(hydroxymethyl)phenyl)-7H-pyrrolo[2,3-d]pyrimidin-2-ylamino)-3-methoxy-N-methylbenzamide] |  | < 100 nM
CNC(=O)c1ccc(Nc2nc(OC3CCCC3)c3c(-c4ccc5nn[nH]c5c4)c[nH]c3n2)c(OC)c1 [Example 27, 4-(5-(1H-benzo[d][1,2,3]triazol-6-yl)-4-(cyclopentyloxy)-7H-pyrrolo [2,3-d]pyrimidin-2-ylamino)-3-methoxy-N-methylbenzamide] |  | < 100 nM
CNC(=O)c1ccc(Nc2nc(OC3CCCC3)c3c(-c4ccc(-c5nnc[nH]5)cc4)c[nH]c3n2)c(OC)c1 [Example 28, 4-(5-(4-(4H-1,2,4-triazol-3-yl)phenyl)-4-(cyclopentyloxy)-7H-pyrrolo[2,3-d]pyrimidin-2-ylamino)-3-methoxy-N-methylbenzamide] |  | < 100 nM
CNC(=O)c1ccc(Nc2nc(OC3CCOCC3)c3c(-c4ccc(O)cc4)c[nH]c3n2)c(Cl)c1 [Example 29, 3-chloro-4-(5-(4-hydroxyphenyl)-4-(tetrahydro-2H-pyran-4-yloxy)-7H-pyrrolo[2,3-d]pyrimidin-2-ylamino)-N-methylbenzamide] |  | < 100 nM
CNC(=O)c1ccc(Nc2nc(OC3CCCC3)c3c(-c4ccc5nc[nH]c5c4)c[nH]c3n2)c(OC)c1 [Example 30, 4-(5-(1H-benzo[d]imidazol-6-yl)-4-(cyclopentyloxy)-7H-pyrrolo[2,3-d]pyrimidin-2-ylamino)-3-methoxy-N-methylbenzamide] |  | < 100 nM
COc1cc(C(=O)N(C)C)ccc1Nc1nc(OC2CCCC2)c2c(-c3ccc(O)cc3)c[nH]c2n1 [Example 31, 4-(4-(cyclopentyloxy)-5-(4-hydroxyphenyl)-7H-pyrrolo[2,3-d]pyrimidin-2-ylamino)-3-methoxy-N,N-dimethylbenzamide] |  | < 100 nM
CNC(=O)c1ccc(Nc2nc(OC3CCCC3)c3c(-c4ccc(NS(C)(=O)=O)cc4)c[nH]c3n2)c(OC)c1 [Example 32, 4-(4-(cyclopentyloxy)-5-(4-(methylsulfonamido)phenyl)-7H-pyrrolo[2,3-d]pyrimidin-2-ylamino)-3-methoxy-N-methylbenzamide] |  | < 100 nM
CNC(=O)c1ccc(Nc2nc(OC3CCCC3)c3c(-c4ccc(O)c(C#N)c4)c[nH]c3n2)c(OC)c1 [Example 33, 4-(5-(3-cyano-4-hydroxyphenyl)-4-(cyclopentyloxy)-7H-pyrrolo[2,3-d]pyrimidin-2-ylamino)-3-methoxy-N-methylbenzamide] |  | < 100 nM
CNC(=O)c1ccc(Nc2nc(OC3CCCC3)c3c(-c4cncc(OC)c4)c[nH]c3n2)c(Cl)c1 [Example 34, 3-chloro-4-(4-(cyclopentyloxy)-5-(5-methoxypyridin-3-yl)-7H-pyrrolo [2,3-d]pyrimidin-2-ylamino)-N-methylbenzamide] |  | 100 to 400 nM
CNC(=O)c1ccc(Nc2nc(OC3CCCC3)c3c(-c4ccc5oc(C)nc5c4)c[nH]c3n2)c(OC)c1 [Example 35, 4-(4-(cyclopentyloxy)-5-(2-methylbenzo[d]oxazol-5-yl)-7H-pyrrolo[2,3-d]pyrimidin-2-ylamino)-3-methoxy-N-methylbenzamide] |  | 1000 to 10000 nM
CNC(=O)c1ccc(Nc2nc(NC3CCCCC3)c3c(-c4ccc(O)cc4)c[nH]c3n2)c(OC)c1 [Example 36, 4-(4-(cyclohexylamino)-5-(4-hydroxyphenyl)-7H-pyrrolo[2,3-d]pyrimidin-2-ylamino)-3-methoxy-N-methylbenzamide] |  | < 100 nM
CNC(=O)c1ccc(Nc2nc(OC3CCCC3)c3c(-c4ccc(N)cc4)c[nH]c3n2)c(OC)c1 [Example 37, 4-(5-(4-aminophenyl)-4-(cyclopentyloxy)-7H-pyrrolo[2,3-d]pyrimidin-2-ylamino)-3-methoxy-N-methylbenzamide] |  | < 100 nM
CNC(=O)c1ccc(Nc2nc(OC3CCCC3)c3c(-c4ccc(NC(N)=O)cc4)c[nH]c3n2)c(OC)c1 [Example 39, 4-(4-(cyclopentyloxy)-5-(4-ureidophenyl)-7H-pyrrolo[2,3-d]pyrimidin-2-ylamino)-3-methoxy-N-methylbenzamide] |  | < 100 nM
CNC(=O)c1ccc(Nc2nc(NC3CCOCC3)c3c(-c4ccc(O)cc4)c[nH]c3n2)c(OC)c1 [Example 40, 4-(5-(4-hydroxyphenyl)-4-(tetrahydro-2H-pyran-4-ylamino)-7H-pyrrolo[2,3-d]pyrimidin-2-ylamino)-3-methoxy-N-methylbenzamide] |  | < 100 nM
CNC(=O)c1ccc(Nc2nc(OC3CCCC3)c3c(-c4ccc(-c5ccn[nH]5)cc4)c[nH]c3n2)c(OC)c1 [Example 41, 4-(5-(4-(1H-pyrazol-5-yl)phenyl)-4-(cyclopentyloxy)-7H-pyrrolo[2,3-d]pyrimidin-2-ylamino)-3-methoxy-N-methylbenzamide] |  | 100 to 400 nM
CNC(=O)c1ccc(Nc2nc(OC3CCCC3)c3c(-c4ccc(O)c(F)c4)c[nH]c3n2)c(OC)c1 [Example 42, 4-(4-(cyclopentyloxy)-5-(3-fluoro-4-hydroxyphenyl)-7H-pyrrolo[2,3-d]pyrimidin-2-ylamino)-3-methoxy-N-methylbenzamide] |  | < 100 nM
CNC(=O)c1ccc(Nc2nc(OC3CCCC3)c3c(-c4ccc(O)c(C)c4)c[nH]c3n2)c(OC)c1 [Example 43, 4-(4-(cyclopentyloxy)-5-(4-hydroxy-3-methylphenyl)-7H-pyrrolo[2,3-d]pyrimidin-2-ylamino)-3-methoxy-N-methylbenzamide] |  | < 100 nM
COc1cc(C(N)=O)ccc1Nc1nc(OC2CCCC2)c2c(-c3ccc(O)cc3)c[nH]c2n1 [Example 44, 4-(4-(cyclopentyloxy)-5-(4-hydroxyphenyl)-7H-pyrrolo[2,3-d]pyrimidin-2-ylamino)-3-methoxybenzamide] |  | < 100 nM
CNC(=O)c1ccc(Nc2nc(O[C@H]3CC[C@H](O)CC3)c3c(-c4ccc(O)cc4)c[nH]c3n2)c(OC)c1 [Example 45, 4-(4-((1r,4R)-4-hydroxycyclo-hexyloxy)-5-(4-hydroxyphenyl)-7H-pyrrolo[2,3-d]pyrimidin-2-ylamino)-3-methoxy-N-methylbenzamide] |  | < 100 nM
CNC(=O)c1ccc(Nc2nc(O[C@H]3CC[C@@H](O)CC3)c3c(-c4ccc(O)cc4)c[nH]c3n2)c(OC)c1 [Example 46, 4-(4-((1s,4s)-4-hydroxycyclo-hexyloxy)-5-(4-hydroxyphenyl)-7H-pyrrolo[2,3-d]pyrimidin-2-ylamino)-3-methoxy-N-methylbenzamide] |  | < 100 nM
CNC(=O)c1ccc(Nc2nc(OC3CCCC3)c3c(-c4cccc(C(C)(C)O)c4)c[nH]c3n2)c(OC)c1 [Example 47, 4-(4-(cyclopentyloxy)-5-(3-(2-hydroxypropan-2-yl)phenyl)-7H-pyrrolo[2,3-d]pyrimidin-2-ylamino)-3-methoxy-N-methylbenzamide] |  | 400 to 1000 nM
CNC(=O)c1ccc(Nc2nc(OC3CCCC3)c3c(-c4ccc(-c5ncc[nH]5)cc4)c[nH]c3n2)c(OC)c1 [Example 48, 4-(5-(4-(1H-imidazol-2-yl)phenyl)-4-(cyclopentyloxy)-7H-pyrrolo[2,3-d]pyrimidin-2-ylamino)-3-methoxy-N-methylbenzamide] |  | < 100 nM
CNC(=O)c1ccc(Nc2nc(OC3CCCC3)c3c(-c4ccc(C(C)(C)O)cc4)c[nH]c3n2)c(OC)c1 [Example 49, 4-(4-(cyclopentyloxy)-5-(4-(2-hydroxypropan-2-yl)phenyl)-7H-pyrrolo[2,3-d]pyrimidin-2-ylamino)-3-methoxy-N-methylbenzamide] |  | 100 to 400 nM
COc1cc(-c2cn[nH]c2)ccc1Nc1nc(OC2CCCC2)c2c(-c3ccc(O)cc3)c[nH]c2n1 [Example 50, 4-(4-(cyclopentyloxy)-2-(2-methoxy-4-(1H-pyrazol-4-yl)phenylamino)-7H-pyrrolo[2,3-d]pyrimidin-5-yl) phenol] |  | < 100 nM
